Each block holds one compound with its values, some of them ahead of it.
How the values were obtained:
[1] = test system: SW-1222 tumor; test: In vivo tumor uptake using 3-step PRIT; design: species or system mice; conditions: for Tumor Uptake: SW-1222 tumor-bearing mice pretreated with anti-GPA33/anti-DOTA BsAb and DOTA-dendrimer clearing agent, in %ID/g
Procedure: The in vivo tumor uptake of [F]Cy3D [^177Lu] ([^177Lu]-Compound 6) was analyzed in tumor-bearing (SW-1222) mice.

[2] = In vivo biodistribution and pharmacokinetics in tumor free mice (gamma counter)
Procedure: The in vivo biodistribution and pharmacokinetics of ([^177Lu]-Compound 6) and BnDOTA[^177Lu] was investigated in tumor free mice. See FIGS. 17A-17B and Tables 2 and 3. Mice were dosed with radiolabeled probes at t=0 and sacrificed at various time points. Organs were harvested and activity was counted by gamma counter. Tables 2-3 show the serial biodistribution data for the analyzed organs of Compound 6 and Compound 2, respectively. FIG. 17A overlays the time course in activity in either vital tissues (left panel) or the blood (right panel) between the two probes.

[3] = test system: subcutaneous GD2-expressing tumor (IMR32Luc); test: ^18F-PET imaging of GD2-positive subcutaneous tumor; assay type: in vivo; conditions: IMR32Luc tumor mouse, anti-GD2/anti-DOTA BsAb 24 h and clearing agent 4 h before PET; image after 2 hours
Procedure: A pilot PET study using ([^175Lu][^18F]-Compound 6) was carried out. For that purpose, a mouse bearing a subcutaneous GD2-expressing tumor (IMR32Luc) was pretreated (24 hours pre PET) with an anti-GD2/anti-DOTA BsAb and followed with DOTA-dendrimer clearing agent (glycodendrimer-based CA α-thio-N-acetylgalactosamine-16-DOTA-Y^3; see WO2020014386) (4 hours before PET) and [^175Lu][^18F]-Compound 6. After 2 hours the image was collected by a PET scan. […] Moreover, the small size of [^175Lu][^18F]-Compound 6 reduced background activity dramatically in a short amount of time.

[4] = test system: GPA33-expressing SW1222 colon cancer cells; test: Binding with anti-GPA33/anti-DOTA BsAb, FACS flow cytometry (MFI); assay type: cell-based, human
Procedure: Next [^175Lu]-Compound 6 binding to GPA33-expressing SW1222 colon cancer cells was investigated. SW1222 cells were incubated with 25, 2.5 or 0.25 pmol of anti-GPA33/Anti-DOTA BsAb, or a control (anti-GD2/anti-DOTA) BsAb, washed and mixed with 50, 5 or 0.5 pmol of [^175Lu]-Compound 6.

[5] = test system: GD2-expressing IMR32Luc neuroblastoma cells; test: Cell binding with anti-tumor/anti-DOTA BsAb, FACS; assay type: cell-based
Procedure: The cell binding activity of [F]Cy3D (Compound 6) was assayed with an anti-tumor/anti-DOTA bispecific antibody (BsAb). To detect binding of Compound 6 to GD2-expressing IMR32Luc neuroblastoma cells using an anti-GD2/anti-DOTA BsAb or a control BsAb (anti-HER2/anti-DOTA), cells were incubated with 1 μg of BsAb or PBS, washed and then incubated with several versions of Compound 6: (1) Compound 6, (2) [^175Lu]Pre-Compound 6 where ^175Lu was added before a mock ^19F isotope exchange, (3) [^19F]Pre-[^175Lu]Compound 6, where a mock ^19F isotope exchange was done before ^175Lu was added, and (4) [^175Lu]-Compound 6 where ^175Lu was directly added to Compound 6 without isotope exchange. Cells were analyzed by FACS or fluorescent microscopy.

[6] = test system: IMR32luc cells; test: Cell binding with BsAb, fluorescent microscopy; assay type: cell-based; conditions: IMR32luc cells incubated with anti-GD2/anti-DOTA BsAb
Procedure: The cell binding of Compound 6 and [^175Lu]-Compound 6 variants was then studied using fluorescent microscopy. IMR32luc cells were incubated with Anti-GD2/Anti-DOTA BsAb, a control anti-DOTA BsAb or no BsAb, followed by incubation with Compound 6 or [^175Lu]-Compound 6 variants. […] Binding was not detected when a control anti-DOTA BsAb was added (FIG. 14) or no BsAb was added (FIG. 15).

Tumor Uptake ([1]; 1 h): 25.24 ± 4.49
Tumor Uptake ([1]; 4 h): 21.93 ± 2.25
Tumor Uptake ([1]; 24 h): 23.17 ± 4.83
Tumor Uptake ([1]; 48 h): 22.13 ± 5.37
Uptake ([2]; Blood, 1 h after dosing): 0.122 ± 0.005 % injected Dose/gram
Uptake ([2]; Blood, 2 h after dosing): 0.034 ± 0.005 % injected Dose/gram
Uptake ([2]; Blood, 4 h after dosing): 0.014 ± 0.001 % injected Dose/gram
Uptake ([2]; Blood, 24 h after dosing): 0.004 ± 0.002 % injected Dose/gram
Uptake ([2]; Blood, 48 h after dosing): 0.003 ± 0 % injected Dose/gram
Uptake ([2]; Bone, 1 h after dosing): 0.065 ± 0.009 % injected Dose/gram
Uptake ([2]; Bone, 2 h after dosing): 0.043 ± 0.007 % injected Dose/gram
Uptake ([2]; Bone, 4 h after dosing): 0.038 ± 0.012 % injected Dose/gram
Uptake ([2]; Bone, 24 h after dosing): 0.019 ± 0.003 % injected Dose/gram
Uptake ([2]; Bone, 48 h after dosing): 0.021 ± 0.001 % injected Dose/gram
Uptake ([2]; Brain, 1 h after dosing): 0.007 ± 0.001 % injected Dose/gram
Uptake ([2]; Brain, 2 h after dosing): 0.014 ± 0.01 % injected Dose/gram
Uptake ([2]; Brain, 4 h after dosing): 0.004 ± 0 % injected Dose/gram
Uptake ([2]; Brain, 24 h after dosing): 0.001 ± 0.001 % injected Dose/gram
Uptake ([2]; Brain, 48 h after dosing): 0.001 ± 0 % injected Dose/gram
Biodistribution, comparison of the two probes ([2]; FIG. 17B): comparable biodistribution
Uptake ([2]; Heart, 1 h after dosing): 0.056 ± 0.006 % injected Dose/gram
Uptake ([2]; Heart, 2 h after dosing): 0.027 ± 0.004 % injected Dose/gram
Uptake ([2]; Heart, 4 h after dosing): 0.017 ± 0 % injected Dose/gram
Uptake ([2]; Heart, 24 h after dosing): 0.008 ± 0.006 % injected Dose/gram
Uptake ([2]; Heart, 48 h after dosing): 0.009 ± 0 % injected Dose/gram
Uptake ([2]; Kidneys, 1 h after dosing): 1.021 ± 0.096 % injected Dose/gram
Uptake ([2]; Kidneys, 2 h after dosing): 1.147 ± 0.184 % injected Dose/gram
Uptake ([2]; Kidneys, 4 h after dosing): 0.989 ± 0.1 % injected Dose/gram
Uptake ([2]; Kidneys, 24 h after dosing): 0.66 ± 0.07 % injected Dose/gram
Uptake ([2]; Kidneys, 48 h after dosing): 0.5 ± 0.05 % injected Dose/gram
Uptake ([2]; Lg. Intestine, 1 h after dosing): 0.046 ± 0.009 % injected Dose/gram
Uptake ([2]; Lg. Intestine, 2 h after dosing): 2.577 ± 0.409 % injected Dose/gram
Uptake ([2]; Lg. Intestine, 4 h after dosing): 2.356 ± 1.032 % injected Dose/gram
Uptake ([2]; Lg. Intestine, 24 h after dosing): 0.047 ± 0.016 % injected Dose/gram
Uptake ([2]; Lg. Intestine, 48 h after dosing): 0.035 ± 0.021 % injected Dose/gram
Uptake ([2]; Liver, 1 h after dosing): 0.119 ± 0.015 % injected Dose/gram
Uptake ([2]; Liver, 2 h after dosing): 0.12 ± 0.025 % injected Dose/gram
Uptake ([2]; Liver, 4 h after dosing): 0.088 ± 0.009 % injected Dose/gram
Uptake ([2]; Liver, 24 h after dosing): 0.063 ± 0.007 % injected Dose/gram
Uptake ([2]; Liver, 48 h after dosing): 0.052 ± 0.007 % injected Dose/gram
Uptake ([2]; Lungs, 1 h after dosing): 0.142 ± 0.017 % injected Dose/gram
Uptake ([2]; Lungs, 2 h after dosing): 0.071 ± 0.01 % injected Dose/gram
Uptake ([2]; Lungs, 4 h after dosing): 0.041 ± 0.004 % injected Dose/gram
Uptake ([2]; Lungs, 24 h after dosing): 0.023 ± 0.005 % injected Dose/gram
Uptake ([2]; Lungs, 48 h after dosing): 0.017 ± 0.001 % injected Dose/gram
Uptake ([2]; Muscle, 1 h after dosing): 0.04 ± 0.009 % injected Dose/gram
Uptake ([2]; Muscle, 2 h after dosing): 0.032 ± 0.014 % injected Dose/gram
Uptake ([2]; Muscle, 4 h after dosing): 0.023 ± 0.013 % injected Dose/gram
Uptake ([2]; Muscle, 24 h after dosing): 0.008 ± 0.003 % injected Dose/gram
Uptake ([2]; Muscle, 48 h after dosing): 0.007 ± 0 % injected Dose/gram
Uptake ([2]; Sm. Intestine, 1 h after dosing): 0.914 ± 0.311 % injected Dose/gram
Uptake ([2]; Sm. Intestine, 2 h after dosing): 0.958 ± 0.379 % injected Dose/gram
Uptake ([2]; Sm. Intestine, 4 h after dosing): 0.169 ± 0.258 % injected Dose/gram
Uptake ([2]; Sm. Intestine, 24 h after dosing): 0.022 ± 0.007 % injected Dose/gram
Uptake ([2]; Sm. Intestine, 48 h after dosing): 0.016 ± 0.003 % injected Dose/gram
Uptake ([2]; Spleen, 1 h after dosing): 0.06 ± 0.008 % injected Dose/gram
Uptake ([2]; Spleen, 2 h after dosing): 0.048 ± 0.021 % injected Dose/gram
Uptake ([2]; Spleen, 4 h after dosing): 0.032 ± 0.004 % injected Dose/gram
Uptake ([2]; Spleen, 24 h after dosing): 0.029 ± 0.002 % injected Dose/gram
Uptake ([2]; Spleen, 48 h after dosing): 0.022 ± 0.001 % injected Dose/gram
Uptake ([2]; Stomach, 1 h after dosing): 0.734 ± 1.363 % injected Dose/gram
Uptake ([2]; Stomach, 2 h after dosing): 0.985 ± 0.861 % injected Dose/gram
Uptake ([2]; Stomach, 4 h after dosing): 0.186 ± 0.256 % injected Dose/gram
Uptake ([2]; Stomach, 24 h after dosing): 0.02 ± 0.011 % injected Dose/gram
Uptake ([2]; Stomach, 48 h after dosing): 0.019 ± 0 % injected Dose/gram
Uptake ([2]; Tail, 1 h after dosing): 0.279 ± 0.079 % injected Dose/gram
Uptake ([2]; Tail, 2 h after dosing): 0.237 ± 0.128 % injected Dose/gram
Uptake ([2]; Tail, 4 h after dosing): 0.154 ± 0.102 % injected Dose/gram
Uptake ([2]; Tail, 24 h after dosing): 0.079 ± 0.026 % injected Dose/gram
Uptake ([2]; Tail, 48 h after dosing): 0.018 ± 0.016 % injected Dose/gram
Clearance (time course of activity in vital tissues and blood) ([2]; comparison of the two probes): cleared at similar rates
Compound: CC1(C)C(=CC=CC2=[N+](CCCCCC(=O)NCC[N+](C)(C)C[B-](F)(F)F)c3ccc(S(=O)(=O)[O-])cc3C2(C)C)N(CCCCCC(=O)Nc2ccc(CC3CN(CC(=O)[O-])CCN(CC(=O)[O-])CCN(CC(=O)[O-])CCN3CC(=O)[O-])cc2)c2ccc(S(=O)(=O)[O-])cc21.[177Lu+3] (stereo not drawn) [[^177Lu]-Compound 6, [F]Cy3D[^177Lu]]
Binding to BsAb-treated tumor in vivo compared to the standard BnDOTA[^177Lu] ([1]; SW-1222 tumor-bearing mice, 3-step PRIT): equal specificity and efficacy

Compound: CC1(C)C(=CC=CC2=[N+](CCCCCC(=O)NCC[N+](C)(C)C[B-](F)(F)[18F])c3ccc(S(=O)(=O)[O-])cc3C2(C)C)N(CCCCCC(=O)Nc2ccc(CC3CN(CC(=O)[O-])CCN(CC(=O)[O-])CCN(CC(=O)[O-])CCN3CC(=O)[O-])cc2)c2ccc(S(=O)(=O)[O-])cc21.[175Lu+3] (stereo not drawn) [[^175Lu][^18F]-Compound 6, [^18F]Cy3D[^175Lu]]
Tumor targeting by PET scan [3]: specifically targeted to the BsAb-treated tumor

Compound: CC1(C)C(=CC=CC2=[N+](CCCCCC(=O)NCC[N+](C)(C)C[B-](F)(F)F)c3ccc(S(=O)(=O)[O-])cc3C2(C)C)N(CCCCCC(=O)Nc2ccc(CC3CN(CC(=O)[O-])CCN(CC(=O)[O-])CCN(CC(=O)[O-])CCN3CC(=O)[O-])cc2)c2ccc(S(=O)(=O)[O-])cc21.[175Lu+3] (stereo not drawn) [[^175Lu]-Compound 6, [F]Cy3D[^175Lu]]
Mean fluorescence (MFI) of binding ([4]; SW1222 cells, 25, 2.5 or 0.25 pmol anti-GPA33/anti-DOTA BsAb, 50, 5 or 0.5 pmol probe): proportionate to the amount
Binding to cells (FACS) ([4]; SW1222 cells, control anti-GD2/anti-DOTA BsAb): no binding

Compound: CC1(C)C(/C=C/C=C2/N(CCCCCC(=O)Nc3ccc(CC4CN(CC(=O)O)CCN(CC(=O)O)CCN(CC(=O)O)CCN4CC(=O)O)cc3)c3ccc(S(=O)(=O)[O-])cc3C2(C)C)=[N+](CCCCCC(=O)NCC[N+](C)(C)C[B-](F)(F)F)c2ccc(S(=O)(=O)O)cc21 (stereo not drawn) [Compound 6, [F]Cy3D]
Binding to cells (fluorescence, FACS) ([5]; IMR32Luc cells incubated with 1 μg anti-GD2/anti-DOTA BsAb): shows no fluorescence
Binding to cells (fluorescence, FACS) ([5]; IMR32Luc cells, negative controls: no BsAb or control BsAb (anti-HER2/anti-DOTA)): no binding
Binding to cells (fluorescent microscopy) [6]: did not show binding
